Reference: patent publication US20220354811A1, “METHODS AND COMPOSITIONS FOR MODULATING MACROPHAGES POLARIZATION” (INSERM (INSTITUT NATIONAL DE LA SANTÉ ET DE LA RECHERCHE …, priority 2019, published 2022)

Experiments:
[1] = test system: bleomycin-induced pulmonary fibrosis; assay: Bleomycin-induced lung fibrosis in mice; format: in vivo; settings: subcutaneous 18 μg/g body weight twice a day for three weeks; bleomycin-treated mice
Text: FIG. 7. Pharmacologic and genetic inhibition of caspase-8 prevents bleomycin-induced pulmonary fibrosis. (A) Quantification of Sirius Red labeling intensity. […] Each dot or square is an individual mouse. *P<0.05 according to Mann-Whitney test. (B) Quantification of airspace number/mm2 of parenchymal tissue. Results expressed as fold change in treated compared to control mice as in B. *P<0.05 according to Mann-Whitney test. (C) Quantification of Sirius Red labeling intensity. Results expressed as fold change in treated compared to control mice, C8 KO+bleomycin compared to C8 KO as in B. *P<0.05 according to Mann-Whitney test. (D) Quantification of airspace number/mm2 of parenchymal tissue. Results are expressed as fold change in treated compared to untreated wild-type mice, as in panel E. *P<0.05 according to Mann-Whitney test. (E) Cytokines were measured in broncho-alveolar lavage fluid collected from bleomycin-treated wild-type (wt) and LysM-Cre/Caspase-8 flox/flox (C8 KO) mice treated with bleomycin. Results are expressed as fold-changes compared to untreated mice. *P<0.05, **P<0.01 according to Mann-Whitney test. […]
Procedures were approved by our Institutional Ethical Committee (CEEA 26) and the French Ministry of Research (#9861). […] To quantify airspace number, tissue sections 4-μm stained with Sirius Red were scanned using a NanoZoomer-SQ (Hamamatsu Corporation, Japan). […]

[2] = test system: IL4-polarized macrophages; assay: mRNA expression in IL-4-polarized macrophages (RNAseq, qPCR); format: cell-based, human
Method: Human monocytes were differentiated during 5 days with 50 ng/mL CSF-1 and then polarized into MO-macrophages (CSF-1) or M2-macrophages (IL-4) for 24 (mRNA) or 48 hours. […] The expression of the indicated mRNA is analyzed by qPCR (mean ±SEM of 6 independent experiments). *P<0.05, **P<0.01 according to a paired student t test (versus M2-macrophages).
The RNA integrity (RNA Integrity Score≥7.0) was checked on the Agilent 2100 Bioanalyzer (Agilent) and quantity was determined using Qubit (Invitrogen). SureSelect Automated Strand Specific RNA Library Preparation Kit was used according to manufacturer's instructions with the Bravo Platform. Briefly, 50 to 200 ng of total RNA sample was used for poly-A mRNA selection using oligo(dT) beads and subjected to thermal mRNA fragmentation. The fragmented mRNA samples were subjected to cDNA synthesis and were further converted into double stranded DNA using the reagents supplied in the kit, and the resulting dsDNA was used for library preparation. The final libraries were bar-coded, purified, pooled together in equal concentrations and subjected to paired-end sequencing on Novaseq-6000 sequencer (Illumina) at Gustave Roussy.
Quantification. Quality of raw FastQ files was assessed with Fastqc v0.11.8 and Fastq-screen v0.13.0. Quality report was gathered with MultiQC v1.8. Abundance estimation was performed with Salmon v0.14.1 using following parameters: —libType A —validateMappings —numBootstraps 60. Salmon index was created using Human Gencode reference annotation release 33 and using following parameters —gencode —keepDuplicates. Differential analysis. Statistical analysis was performed using R 3.6.1. Transcript expression levels were aggregated in gene expression levels using tximport v1.14.0 Bioconductor package. At this step only protein coding genes were considered. We also decided to keep only high quality annotations therefore genes annotated as “automated annotation” in GENCODE were discarded. DESeq2 v1.26.0 method was used to identify differentially expressed genes between groups with an adjusted p-value threshold of 0.05.
RNA was prepared from 5×10^6 cells using the RNeasy Mini Kit according to manufacturer's protocol (Qiagen, 74104). Each cDNA sample was prepared using AMV RT and random primers (Promega, M510F and C1181). Real-time polymerase chain reaction (PCR) was performed using the SyBR Green detection protocol (Life Technologies, 4367659). Briefly, 5 ng of total cDNA, 500 nM (each) primers, and 5 μL SyBR Green mixture were used in a total volume of 10 μL. Detection of multiple endogenous controls (ACTB, L32 and UBIQUITIN) were used to normalize the results. Specific forward and reverse primers are accessible upon request.

[3] = qPCR, Emricasan 3 μM added 16h before polarization

For C[C@H](NC(=O)C(=O)Nc1ccccc1C(C)(C)C)C(=O)N[C@@H](CC(=O)O)C(=O)COc1c(F)c(F)cc(F)c1F [Emricasan, (S)-3-((S)-2-(2-((2-(tert-Butyl)phenyl)amino)-2-oxoacetamido)propanamido)-4-oxo-5-(2,3,5,6-tetrafluorophenoxy)pentanoic acid], the “lung fibrosis intensity (Sirius Red staining intensity and air space)” value [1] was “dramatically decreases”, the “IL-4 induction of anti-inflammatory and repression of pro-inflammatory markers (RNAseq)” value ([2]; macrophages from three different donors) was “counteracted” and the “IL-4-increased CCL18 mRNA expression” value [2, 3] was “counteracted”. The “IL-4-increased CD200R mRNA expression” value [2, 3] was “counteracted” and the “CXCL8 mRNA level” value ([2]; qPCR, IL-4 combined with Emricasan 3 μM) was “upregulated”.
